The record followed here is ChEMBL document CHEMBL3991601, “The target landscape of clinical kinase drugs” (Science, 2017).

Activity calls are given as the source filed them. For most assays here, no stated cut-off is given here; in the data, actives have a measured Kd and inactives only a lower limit.

As usually defined, the Kd is the constant that tells how readily two partners part at equilibrium.

Experiment [1] concerns the target Tyrosine-protein kinase ABL2 (Homo sapiens, UniProt P42684).
The target in experiment [2] is RAC-gamma serine/threonine-protein kinase (Homo sapiens, UniProt Q9Y243).
In experiment [3] the target is Casein kinase I isoform delta (Homo sapiens, UniProt P48730).
Casein kinase I isoform delta, sequence (P48730 whole entry, canonical isoform): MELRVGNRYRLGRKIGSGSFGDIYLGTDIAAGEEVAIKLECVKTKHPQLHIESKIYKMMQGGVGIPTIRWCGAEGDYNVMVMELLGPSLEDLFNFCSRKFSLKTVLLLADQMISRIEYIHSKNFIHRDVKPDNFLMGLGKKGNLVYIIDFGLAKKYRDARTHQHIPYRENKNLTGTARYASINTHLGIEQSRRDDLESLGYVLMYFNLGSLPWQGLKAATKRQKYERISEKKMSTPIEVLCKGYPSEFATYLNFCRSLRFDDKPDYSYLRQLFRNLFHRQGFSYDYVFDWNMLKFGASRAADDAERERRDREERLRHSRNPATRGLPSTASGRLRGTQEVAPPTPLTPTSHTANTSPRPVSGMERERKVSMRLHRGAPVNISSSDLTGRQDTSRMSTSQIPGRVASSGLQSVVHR
Experiment [4] deals with T1, Mitogen-activated protein kinase 15 (Homo sapiens, UniProt Q8TD08).
T1 sequence (Q8TD08 whole entry): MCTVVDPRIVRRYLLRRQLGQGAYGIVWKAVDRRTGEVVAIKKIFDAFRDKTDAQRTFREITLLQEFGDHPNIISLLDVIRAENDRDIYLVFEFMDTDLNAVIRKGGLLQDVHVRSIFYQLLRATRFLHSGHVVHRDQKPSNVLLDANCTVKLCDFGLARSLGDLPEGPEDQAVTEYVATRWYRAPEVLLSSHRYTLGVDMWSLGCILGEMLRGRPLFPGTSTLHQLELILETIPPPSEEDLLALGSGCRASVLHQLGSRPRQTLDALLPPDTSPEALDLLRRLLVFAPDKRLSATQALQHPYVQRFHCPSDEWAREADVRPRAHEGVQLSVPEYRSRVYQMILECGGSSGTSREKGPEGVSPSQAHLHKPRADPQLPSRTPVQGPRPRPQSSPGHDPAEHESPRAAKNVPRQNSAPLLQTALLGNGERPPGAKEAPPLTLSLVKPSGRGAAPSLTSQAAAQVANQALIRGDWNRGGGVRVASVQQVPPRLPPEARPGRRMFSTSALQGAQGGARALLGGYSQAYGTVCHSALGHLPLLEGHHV

For experiment [5], the target named is T2, MAP kinase-activated protein kinase 5 (Homo sapiens, UniProt Q8IW41).
T2 sequence (Q8IW41 whole entry): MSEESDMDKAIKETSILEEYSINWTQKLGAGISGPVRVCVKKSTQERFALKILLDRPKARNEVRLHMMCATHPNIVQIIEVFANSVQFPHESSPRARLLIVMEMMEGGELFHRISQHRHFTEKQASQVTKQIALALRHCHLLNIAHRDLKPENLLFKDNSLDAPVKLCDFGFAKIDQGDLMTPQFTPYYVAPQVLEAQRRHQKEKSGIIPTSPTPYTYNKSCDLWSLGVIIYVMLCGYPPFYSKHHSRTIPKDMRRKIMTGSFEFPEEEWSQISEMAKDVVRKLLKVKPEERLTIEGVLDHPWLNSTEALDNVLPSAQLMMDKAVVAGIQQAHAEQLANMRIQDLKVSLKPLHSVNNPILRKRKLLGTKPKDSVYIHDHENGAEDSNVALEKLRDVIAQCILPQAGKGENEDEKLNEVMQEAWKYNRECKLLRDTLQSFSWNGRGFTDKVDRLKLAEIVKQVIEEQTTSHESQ

Experiment [6] deals with Macrophage-stimulating protein receptor (Homo sapiens, UniProt Q04912).
Macrophage-stimulating protein receptor, sequence (Q04912 25-304 limits assumed): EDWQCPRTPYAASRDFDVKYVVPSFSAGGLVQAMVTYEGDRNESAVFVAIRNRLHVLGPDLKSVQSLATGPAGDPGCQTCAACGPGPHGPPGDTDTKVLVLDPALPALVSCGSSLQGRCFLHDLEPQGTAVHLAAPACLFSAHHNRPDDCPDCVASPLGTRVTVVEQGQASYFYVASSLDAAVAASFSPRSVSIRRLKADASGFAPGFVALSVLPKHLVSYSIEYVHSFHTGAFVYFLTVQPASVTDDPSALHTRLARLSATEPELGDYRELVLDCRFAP
Macrophage-stimulating protein receptor, sequence (Q04912 310-1400 limits assumed): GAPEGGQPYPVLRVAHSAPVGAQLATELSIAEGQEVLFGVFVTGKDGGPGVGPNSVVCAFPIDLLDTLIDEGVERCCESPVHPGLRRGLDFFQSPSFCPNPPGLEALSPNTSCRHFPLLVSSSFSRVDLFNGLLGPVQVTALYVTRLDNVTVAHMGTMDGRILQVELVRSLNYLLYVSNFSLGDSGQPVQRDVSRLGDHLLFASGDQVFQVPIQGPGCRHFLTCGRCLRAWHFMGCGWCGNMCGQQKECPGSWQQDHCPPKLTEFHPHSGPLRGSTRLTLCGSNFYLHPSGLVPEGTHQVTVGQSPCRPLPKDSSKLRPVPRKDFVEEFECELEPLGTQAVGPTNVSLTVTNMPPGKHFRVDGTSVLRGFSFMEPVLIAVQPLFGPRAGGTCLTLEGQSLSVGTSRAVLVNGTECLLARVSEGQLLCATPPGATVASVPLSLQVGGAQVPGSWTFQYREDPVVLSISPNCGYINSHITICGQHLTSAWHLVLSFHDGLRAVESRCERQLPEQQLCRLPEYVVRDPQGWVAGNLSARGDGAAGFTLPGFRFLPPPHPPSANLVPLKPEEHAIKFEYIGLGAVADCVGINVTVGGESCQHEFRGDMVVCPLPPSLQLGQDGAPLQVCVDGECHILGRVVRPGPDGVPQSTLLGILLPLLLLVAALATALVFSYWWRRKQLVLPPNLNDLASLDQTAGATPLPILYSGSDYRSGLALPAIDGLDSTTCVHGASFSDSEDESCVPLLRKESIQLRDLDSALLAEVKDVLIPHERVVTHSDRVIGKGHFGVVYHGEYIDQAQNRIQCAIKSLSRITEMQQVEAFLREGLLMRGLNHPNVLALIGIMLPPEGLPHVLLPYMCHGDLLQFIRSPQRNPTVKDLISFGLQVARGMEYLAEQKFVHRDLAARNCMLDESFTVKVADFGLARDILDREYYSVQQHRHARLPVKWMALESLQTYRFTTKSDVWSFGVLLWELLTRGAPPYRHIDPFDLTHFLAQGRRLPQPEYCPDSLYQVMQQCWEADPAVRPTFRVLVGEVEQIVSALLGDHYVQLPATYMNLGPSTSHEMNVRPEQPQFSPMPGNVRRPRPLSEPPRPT
Experiment [7] deals with T3, NUAK family SNF1-like kinase 2 (Homo sapiens, UniProt Q9H093).
T3 sequence (Q9H093 whole entry): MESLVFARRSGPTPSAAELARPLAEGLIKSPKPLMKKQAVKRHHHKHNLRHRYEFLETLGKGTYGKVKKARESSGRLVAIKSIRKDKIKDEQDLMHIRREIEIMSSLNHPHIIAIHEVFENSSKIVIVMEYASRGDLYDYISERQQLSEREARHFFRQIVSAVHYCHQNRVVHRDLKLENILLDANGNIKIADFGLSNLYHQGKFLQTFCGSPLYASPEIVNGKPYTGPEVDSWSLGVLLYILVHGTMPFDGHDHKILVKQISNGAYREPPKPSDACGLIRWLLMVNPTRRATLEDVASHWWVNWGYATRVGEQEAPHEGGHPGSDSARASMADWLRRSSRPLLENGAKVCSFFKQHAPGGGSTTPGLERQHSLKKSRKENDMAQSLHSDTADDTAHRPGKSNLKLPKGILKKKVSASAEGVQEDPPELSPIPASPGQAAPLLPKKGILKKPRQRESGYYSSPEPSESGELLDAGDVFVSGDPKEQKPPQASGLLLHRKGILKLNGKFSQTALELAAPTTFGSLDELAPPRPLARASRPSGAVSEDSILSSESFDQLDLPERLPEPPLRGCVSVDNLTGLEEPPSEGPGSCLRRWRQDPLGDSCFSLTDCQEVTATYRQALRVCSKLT

Experiment [8] addresses 5'-AMP-activated protein kinase catalytic subunit alpha-1 (Homo sapiens, UniProt Q13131).
The target in experiment [9] is cAMP-dependent protein kinase catalytic subunit alpha (Homo sapiens, UniProt P17612).
For experiment [10], the target named is Protein-tyrosine kinase 6 (Homo sapiens, UniProt Q13882).
Protein-tyrosine kinase 6, sequence (Q13882 whole entry): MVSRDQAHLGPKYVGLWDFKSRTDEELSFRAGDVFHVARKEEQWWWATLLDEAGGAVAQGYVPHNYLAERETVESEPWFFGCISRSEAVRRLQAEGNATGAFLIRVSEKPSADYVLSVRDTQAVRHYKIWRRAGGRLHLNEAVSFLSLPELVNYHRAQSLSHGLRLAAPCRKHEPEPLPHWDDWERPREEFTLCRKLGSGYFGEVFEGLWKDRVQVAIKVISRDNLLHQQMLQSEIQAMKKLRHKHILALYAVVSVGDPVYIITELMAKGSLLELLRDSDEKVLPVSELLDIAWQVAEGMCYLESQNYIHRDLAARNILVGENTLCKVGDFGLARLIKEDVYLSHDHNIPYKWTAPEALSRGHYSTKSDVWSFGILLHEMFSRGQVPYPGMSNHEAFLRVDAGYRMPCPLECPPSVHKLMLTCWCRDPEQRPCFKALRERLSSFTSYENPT
Experiment [11] deals with T4, Ras-related protein Rab-27A (Homo sapiens, UniProt P51159).
T4 sequence (P51159 whole entry): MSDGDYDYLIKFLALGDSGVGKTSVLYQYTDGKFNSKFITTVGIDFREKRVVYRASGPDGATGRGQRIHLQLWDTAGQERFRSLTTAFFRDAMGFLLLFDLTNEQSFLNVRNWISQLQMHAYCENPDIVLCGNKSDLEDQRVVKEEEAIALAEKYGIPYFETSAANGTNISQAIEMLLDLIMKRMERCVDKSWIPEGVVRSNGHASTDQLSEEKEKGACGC

Experiment [12] addresses Ribosomal protein S6 kinase alpha-4 (Homo sapiens, UniProt O75676).
Experiment [13] addresses Mitogen-activated protein kinase kinase kinase 20 (Homo sapiens, UniProt Q9NYL2).

Tyrosine-protein kinase ABL2, sequence (P42684 whole entry): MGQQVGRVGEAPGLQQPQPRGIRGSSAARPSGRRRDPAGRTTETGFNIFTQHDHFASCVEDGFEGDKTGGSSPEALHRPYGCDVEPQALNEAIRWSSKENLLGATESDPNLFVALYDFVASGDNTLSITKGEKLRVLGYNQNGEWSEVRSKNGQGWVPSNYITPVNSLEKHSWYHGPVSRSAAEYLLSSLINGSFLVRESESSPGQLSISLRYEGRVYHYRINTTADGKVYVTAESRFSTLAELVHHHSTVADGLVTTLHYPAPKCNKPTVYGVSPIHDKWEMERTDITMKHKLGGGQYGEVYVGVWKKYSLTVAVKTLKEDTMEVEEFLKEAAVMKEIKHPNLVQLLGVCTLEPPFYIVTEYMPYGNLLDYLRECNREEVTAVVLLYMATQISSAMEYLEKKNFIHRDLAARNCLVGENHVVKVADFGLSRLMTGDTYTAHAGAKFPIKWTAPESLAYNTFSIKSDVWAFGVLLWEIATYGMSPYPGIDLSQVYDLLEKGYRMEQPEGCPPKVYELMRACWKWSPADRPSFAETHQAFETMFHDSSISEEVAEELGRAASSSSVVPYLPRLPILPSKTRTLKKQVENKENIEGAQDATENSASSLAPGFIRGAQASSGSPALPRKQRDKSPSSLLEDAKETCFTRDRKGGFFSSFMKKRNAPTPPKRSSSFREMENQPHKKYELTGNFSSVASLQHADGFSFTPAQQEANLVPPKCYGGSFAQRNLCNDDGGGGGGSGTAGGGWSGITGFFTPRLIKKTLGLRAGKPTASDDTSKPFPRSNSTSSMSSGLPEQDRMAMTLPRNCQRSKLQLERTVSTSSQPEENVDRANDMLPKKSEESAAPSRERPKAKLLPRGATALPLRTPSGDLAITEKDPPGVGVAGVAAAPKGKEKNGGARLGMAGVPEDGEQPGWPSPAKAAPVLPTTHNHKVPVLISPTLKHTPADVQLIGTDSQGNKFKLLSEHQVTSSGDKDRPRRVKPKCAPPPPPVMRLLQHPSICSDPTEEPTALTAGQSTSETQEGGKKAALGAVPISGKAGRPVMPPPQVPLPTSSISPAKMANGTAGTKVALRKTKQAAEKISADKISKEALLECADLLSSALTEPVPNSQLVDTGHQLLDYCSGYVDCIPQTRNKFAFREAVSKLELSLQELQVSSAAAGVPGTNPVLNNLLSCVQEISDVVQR
Mitogen-activated protein kinase kinase kinase 20, sequence (Q9NYL2 whole entry): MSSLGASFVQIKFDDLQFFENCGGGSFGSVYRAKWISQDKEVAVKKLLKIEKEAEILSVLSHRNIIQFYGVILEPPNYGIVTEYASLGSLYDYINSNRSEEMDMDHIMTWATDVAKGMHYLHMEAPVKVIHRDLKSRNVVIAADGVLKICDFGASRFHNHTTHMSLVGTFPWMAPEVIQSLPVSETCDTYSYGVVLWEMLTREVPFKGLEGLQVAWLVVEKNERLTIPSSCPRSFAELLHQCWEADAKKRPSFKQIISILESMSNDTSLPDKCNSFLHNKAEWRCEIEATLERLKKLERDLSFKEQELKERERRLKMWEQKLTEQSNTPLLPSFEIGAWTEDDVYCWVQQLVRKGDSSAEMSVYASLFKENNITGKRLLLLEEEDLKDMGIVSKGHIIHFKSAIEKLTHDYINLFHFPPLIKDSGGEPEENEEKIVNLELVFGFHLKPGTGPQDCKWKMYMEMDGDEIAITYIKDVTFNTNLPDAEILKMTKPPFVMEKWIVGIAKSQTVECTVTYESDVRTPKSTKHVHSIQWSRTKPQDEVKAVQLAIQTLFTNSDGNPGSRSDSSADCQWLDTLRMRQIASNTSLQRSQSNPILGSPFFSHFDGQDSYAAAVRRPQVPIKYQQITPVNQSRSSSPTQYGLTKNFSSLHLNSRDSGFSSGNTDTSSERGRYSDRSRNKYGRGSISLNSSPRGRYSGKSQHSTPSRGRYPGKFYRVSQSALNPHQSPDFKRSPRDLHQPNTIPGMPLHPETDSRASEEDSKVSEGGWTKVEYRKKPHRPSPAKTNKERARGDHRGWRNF
Ribosomal protein S6 kinase alpha-4, sequence (O75676 whole entry): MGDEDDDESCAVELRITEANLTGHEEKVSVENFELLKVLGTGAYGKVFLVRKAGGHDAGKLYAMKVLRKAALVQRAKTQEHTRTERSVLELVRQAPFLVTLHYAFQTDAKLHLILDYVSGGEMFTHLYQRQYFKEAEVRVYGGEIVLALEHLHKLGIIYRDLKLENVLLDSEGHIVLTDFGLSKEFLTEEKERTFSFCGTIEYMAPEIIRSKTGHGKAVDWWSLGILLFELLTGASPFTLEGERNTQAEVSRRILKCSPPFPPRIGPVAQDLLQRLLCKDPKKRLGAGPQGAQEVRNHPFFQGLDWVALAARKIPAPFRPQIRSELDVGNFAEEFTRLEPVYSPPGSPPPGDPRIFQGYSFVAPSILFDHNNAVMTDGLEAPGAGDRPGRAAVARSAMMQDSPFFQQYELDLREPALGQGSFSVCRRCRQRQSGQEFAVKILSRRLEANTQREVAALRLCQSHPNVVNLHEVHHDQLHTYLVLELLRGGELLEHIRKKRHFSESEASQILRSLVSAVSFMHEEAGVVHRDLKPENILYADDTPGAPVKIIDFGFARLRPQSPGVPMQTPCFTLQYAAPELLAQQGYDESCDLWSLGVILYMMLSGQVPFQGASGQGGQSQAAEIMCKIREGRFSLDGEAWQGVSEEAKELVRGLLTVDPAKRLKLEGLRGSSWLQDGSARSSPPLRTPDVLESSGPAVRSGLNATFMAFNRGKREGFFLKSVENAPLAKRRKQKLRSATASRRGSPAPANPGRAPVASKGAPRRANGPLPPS

For `CC1(COc2ccc3c(c2)ncn3-c2ccc3cccc(N4CCC(N)CC4)c3n2)COC1` [CRENOLANIB], the Kd in [1], in [2], in experiment [3], in [4], in experiment [5] and in experiment [6] was > 30 µM (inactive) throughout. Further, the Kd in experiment [7] is > 30 µM (inactive); in [8], 1.25 µM (active); in experiment [9] it was > 30 µM (inactive); in experiment [10], > 30 µM (inactive); in [11] it was > 30 µM (inactive); in experiment [12] it was > 30 µM (inactive). Besides, in experiment [13], the Kd is > 30 µM (inactive).
As to `COc1cc2ncnc3c2cc1OCCCCCN(C)Cc1ccc(Br)cc1N3` [JNJ-26483327], the Kd in experiment [1] is > 30 µM (inactive); in experiment [2], 0.006 µM; in experiment [3], > 30 µM (inactive); in experiment [4] it was > 30 µM (inactive); in experiment [5], > 30 µM (inactive); in [6] it was > 30 µM (inactive). Also, the Kd in experiment [7], in [8], in experiment [9], in experiment [10], in experiment [11] and in experiment [12] was > 30 µM (inactive) in each case. In addition, the Kd in [13] was > 30 µM (inactive).
In the case of `FC(F)(F)c1ccc(CNc2ccc(Cc3c[nH]c4ncc(Cl)cc34)cn2)cn1` [PEXIDARTINIB], the Kd in experiment [1], in experiment [2], in experiment [3], in experiment [4], in [5] and in [6] was > 30 µM (inactive) throughout. The Kd in experiment [7], in [8], in experiment [9], in experiment [10], in [11] and in experiment [12] was > 30 µM (inactive) throughout. Also, the Kd in [13] was > 30 µM (inactive).
Turning to `c1cc(OCCN2CCCCC2)cc(-c2n[nH]c3ccc(-c4nc[nH]n4)cc23)c1` [CC-401], the Kd was > 30 µM (inactive) in experiment [1]; > 30 µM (inactive) in [2]; 0.287 µM (active) in experiment [3]; > 30 µM (inactive) in experiment [4]; > 30 µM (inactive) in [5]; > 30 µM (inactive) in experiment [6]. In addition, the Kd in experiment [7], in [8], in experiment [9], in [10], in experiment [11] and in experiment [12] was > 30 µM (inactive) each time. The Kd in [13] is > 30 µM (inactive).
As for `NC(=O)c1ccc(N(C(N)=O)c2c(F)cccc2F)nc1-c1ccc(F)cc1F` [VX-702], the Kd in experiment [1], in [2], in experiment [3], in experiment [4], in [5] and in experiment [6] was > 30 µM (inactive) each time. Moreover, the Kd in experiment [7], in experiment [8], in experiment [9], in experiment [10], in experiment [11] and in [12] was > 30 µM (inactive) each time. Further, the Kd in [13] is > 30 µM (inactive).
With `CC[C@@](C)(Nc1ccnc(-c2c[nH]c3ncccc23)n1)C(=O)NCC(F)(F)F` [DECERNOTINIB], the Kd in experiment [1] is 7.07 µM (active); in experiment [2] it was > 30 µM (inactive); in experiment [3], > 30 µM (inactive); in [4], > 30 µM (inactive); in experiment [5], > 30 µM (inactive); in [6], > 30 µM (inactive). In addition, the Kd in experiment [7], in experiment [8], in [9], in [10], in [11] and in experiment [12] was > 30 µM (inactive) throughout. Also, the Kd in experiment [13] was > 30 µM (inactive).
In the case of `CC(C)CC(=O)Nc1[nH]nc2c1CN(C(=O)C1CCN(C)CC1)C2(C)C` [PHA-793887], the Kd in experiment [1] was > 30 µM (inactive); in experiment [2] it was > 30 µM (inactive); in [3], > 30 µM (inactive); in experiment [4] it was 0.264 µM (active); in [5] it was > 30 µM (inactive); in experiment [6], > 30 µM (inactive). The Kd in [7], in experiment [8], in [9], in experiment [10], in experiment [11] and in [12] was > 30 µM (inactive) each time. Moreover, the Kd in [13] was > 30 µM (inactive).
As to `CNC(=O)c1cc(COc2nnc(Nc3ccc(Cl)cc3)c3ccoc23)ccn1` [TELATINIB], the Kd in experiment [1], in [2], in experiment [3], in [4], in experiment [5] and in experiment [6] was > 30 µM (inactive) in each case. Further, the Kd in [7], in experiment [8], in [9], in experiment [10], in experiment [11] and in experiment [12] was > 30 µM (inactive) in each case. Further, the affinity in experiment [13], expressed as Kd, was 0.477 µM.
For `COc1cccc(Nc2ncnn3ccc(CN4CC[C@@H](N)[C@H](O)C4)c23)c1` [BMS-690514], the Kd in experiment [1] is 0.04 µM (active); in experiment [2] it was > 30 µM (inactive); in experiment [3], > 30 µM (inactive); in experiment [4] it was > 30 µM (inactive); in experiment [5], > 30 µM (inactive); in experiment [6] it was > 30 µM (inactive). Also, the Kd in experiment [7] is > 30 µM (inactive); in experiment [8] it was > 30 µM (inactive); in experiment [9], 0.916 µM (active); in experiment [10], > 30 µM (inactive); in [11] it was > 30 µM (inactive); in [12] it was > 30 µM (inactive). In experiment [13], the Kd is 0.282 µM (active).
